Measured values: patent US20090148883A1, “BIOMARKER FOR ASSESSING RESPONSE TO FMS TREATMENT” (priority 2007, published 2009)
Where “and” joins values, the source holds several entries; their conditions need not be identical. Equal entries are not always repeated. Where two headings read alike, the source gives them in different places. Marks after values point to notes of the source that are not given here. Blank lines part the entries; values can stand above or below the compound they belong to.

Key:
[1] = Tolerability in rats, Example 2; format: in vivo; details: 5 or 15 mg/kg COMPOUND 2 or 40 mg/kg COMPOUND 1, po bid, 5 consecutive days
Procedure: Groups of female Sprague Dawley rats (n=5) were orally administered 5 or 15 mg/kg of COMPOUND 2 or 40 mg/kg COMPOUND 1 twice per day for 5 consecutive days to characterize compound tolerability. Additional groups of rats, treated with vehicle or 40 mg/kg COMPOUND 1, were terminated one hour after the a.m. dose on Days 1 and 3 for interim analysis of various parameters. Post-mortem analysis of all treated animals included standard necropsy with liver histology evaluation as well as standard hematology and serology. None of the animals were found dead or were euthanized (moribund) prior to scheduled termination. None of the treatments affected body weight or the organ:body weight ratio of selected organs (i.e., liver, thymus, spleen & uterus). […] Both compounds, at the highest dose tested, decreased the number of macrophages in the uterus (up to ˜60% for COMPOUND 2) on Day 5 however, this parameter was highly variable. […]
On Days 1 & 3, one hour after a.m. dose, five rats from Groups 1 and 4 were euthanized using CO2 asphyxiation and exsanguinated via cardiac puncture. […] The macrophage content of the uterus was determined immunohistochemically using a macrophage-specific (ED-1) antibody. […]

[2] = tested on: CSF-1; test: Plasma CSF-1 biomarker in rats, Example 2 (po bid 5 days); format: in vivo, rat; details: 5 mg/kg po bid, 5 consecutive days
Procedure: (§1) Groups of female Sprague Dawley rats (n=5) were orally administered 5 or 15 mg/kg of COMPOUND 2 or 40 mg/kg COMPOUND 1 twice per day for 5 consecutive days to characterize compound tolerability. Additional groups of rats, treated with vehicle or 40 mg/kg COMPOUND 1, were terminated one hour after the a.m. dose on Days 1 and 3 for interim analysis of various parameters. Post-mortem analysis of all treated animals included standard necropsy with liver histology evaluation as well as standard hematology and serology. None of the animals were found dead or were euthanized (moribund) prior to scheduled termination. None of the treatments affected body weight or the organ:body weight ratio of selected organs (i.e., liver, thymus, spleen & uterus). […] Both compounds, at the highest dose tested, decreased the number of macrophages in the uterus (up to ˜60% for COMPOUND 2) on Day 5 however, this parameter was highly variable.
On Day 0, the rats were ear tagged, randomized into the treatment groups (Groups 1 & 4: n=15, Groups 2 & 3: n=5), weighed and treated (po, bid) with either vehicle (20% HPbCD) or the test articles as delineated in Table 2 (Allocation of Treatment Groups).
(§2) On Days 1 & 3, one hour after a.m. dose, five rats from Groups 1 and 4 were euthanized using CO2 asphyxiation and exsanguinated via cardiac puncture. Blood samples (˜500 μL) were transferred to separate ethylenediaminetetraacetic acid (EDTA) microtainers and a complete blood count (CBC) was conducted using the Advia 120 Hematology System (Bayer Diagnostics, Tarrytown, N.Y.). Additional blood samples were transferred to separate microtainers (with or without anticoagulant) and processed for biomarker (i.e., MCSF-1) and serologic (i.e., AST/ALT) analysis. The liver and thymus were weighed and discarded. The spleens were weighed and zap-frozen and the uteri (without ovaries attached) were weighed and fixed in 10% buffered formalin. The macrophage content of the uterus was determined immunohistochemically using a macrophage-specific (ED-1) antibody.
On Day 5, rats were euthanized using carbon dioxide and exsanguinated via cardiac puncture. Blood samples (˜500 μL) were collected and processed as described above for CBC, biomarker analysis and serology. The liver, spleen, thymus and uterus (without ovaries attached) were isolated, weighed and fixed in buffered formalin. The right knee with femur attached was isolated, trimmed and fixed in formalin. The left femur was isolated for determination of bone marrow cell counts. Liver histopathology was also conducted.
Differences between treated and control groups were analyzed statistically by ANOVA with a Dunnett's Multiple Comparison post-test. (p value; *:<0.05, **:<0.01).

[3] = tested on: ED-1 positive macrophages in the uterus; test: Macrophage content of the uterus (ED-1 immunohistochemistry) in rats, Example 2; format: in vivo, rat; details: Day 5
Procedure: as §1, §2
On Day 5, rats were euthanized using carbon dioxide and exsanguinated via cardiac puncture. […]
Differences between treated and control groups were analyzed statistically by ANOVA with a Dunnett's Multiple Comparison post-test. […]

[4] = tested on: CSF-1; test: Plasma CSF-1 in rats dosed 4 days, Examples 3 and 4 (mouse CSF-1 ELISA); format: in vivo, rat; details: for CSF-1 levels elevated: vs vehicle; for CSF-1, pg/ml, Mean (SEM) / Plasma CSF-1, pg/ml, Mean: group mean; for CSF-1, pg/ml, Mean (SEM) / CSF-1, pg/ml (plasma): vehicle mean 127; for CSF-1, pg/ml (plasma) / Plasma CSF-1, pg/ml: individual animals; for Plasma CSF-1, pg/ml, Mean / Plasma CSF-1, pg/ml: vehicle mean 124
Procedure: (§3) Pharmacodynamic activity in rats was determined to identify appropriate doses for efficacy studies. Circulating CSF-1 is cleared by sinusoidal macrophages when bound and internalized by FMS in a process that is partly dependent on FMS kinase activity. CSF-1 levels rise when FMS is inhibited, or when FMS inhibition reduces the number/function of macrophages. Uterine macrophages are short-lived and FMS-dependent. Quantitation of uterine macrophage density and plasma CSF-1 levels thereby provided pharmacodynamic endpoints measurable in rats following 4 days of dosing.
(§4) […] On the fifth day, a final dose was given and the animals were sacrificed 2 hrs later. Rats were euthanized using CO2 asphyxiation and exsanguinated via cardiac puncture. An aliquot of blood ([…]) was transferred to an EDTA tube and processed for plasma and for determination of plasma compound and CSF-1 biomarker levels.

[5] = tested on: uterine macrophages; test: Uterine ED1 stained area (uterine macrophage density) in rats dosed 4 days, Examples 3 and 4; format: in vivo, rat; details: for Uterine macrophages depleted: vs vehicle; for Uterine ED1 area/HPF, Mean (SEM) / Uterine ED1 area/HPF, Mean: group mean; for Uterine ED1 area/HPF: individual animals
Procedure: as §3, §4
Spleens, livers and uteri (without ovaries) were isolated and weighed and uteri were fixed in formalin. Uteri sections were stained for ED1 and ED-1 stained area (arbitrary units) at 200× magnification was determined using Image-Pro Plus software.

[6] = Plasma compound levels in rats dosed 4 days, Examples 3 and 4; format: in vivo, rat; details: for concentration at 2 h: rat, plasma
[7] = as above; format: in vivo, rat; details: 2 hrs after final dose, individual animals; for concentration at 2 h: female, Sprague Dawley, rat, plasma, oral
Procedure: Method: Female Sprague Dawley Rats (150 to 200 g BW) from Charles River were administered vehicle or COMPOUND 3 at 10 and 40 mg/kg p.o. bid for 4 days. On the fifth day, a final dose was given and the animals were sacrificed 2 hrs later. Rats were euthanized using CO2 asphyxiation and exsanguinated via cardiac puncture. An aliquot of blood ([…]) was transferred to an EDTA tube and processed for plasma and for determination of plasma compound and CSF-1 biomarker levels.

[8] = 10 mg/kg p.o. bid 4 days, vehicle mean 9808
[9] = 40 mg/kg p.o. bid 4 days, vehicle mean 9808
[10] = 10 mpk, dosed 4 days, vehicle mean 2057
[11] = 20 mpk, dosed 4 days, vehicle mean 2057
[12] = 50 mpk, dosed 4 days, vehicle mean 2057

Compound: Cc1ncc(-c2c(C3=CCCCC3)c3cc(C#N)ccc3[nH]c2=O)[nH]1 [COMPOUND 2]
Effect on appearance, behavior, body weight or organ:body weight ratio (liver, spleen, thymus) [1]: did not have an observable effect | Effect on plasma concentrations of CSF-1 [2]: failed to significantly affect plasma concentrations of CSF-1 | Effect on macrophage content of the uterus ([3]; highest dose tested (COMPOUND 2 15 mg/kg, COMPOUND 1 40 mg/kg po bid), highly variable): significant effect | Decrease in number of ED-1 positive macrophages per field in the uterus ([3]; up to, dose dependent (5 and 15 mg/kg po bid)): ~60%

concentration at 2 h ([6]; female, Sprague Dawley, oral, 10 mg/kg, 10 mg/kg p.o. bid 4 days, 2 hrs after final dose, group mean, read-out: Compound, ng/ml, Mean (SEM)): 2540 ng/mL | concentration at 2 h ([6]; female, Sprague Dawley, oral, 40 mg/kg, 40 mg/kg p.o. bid 4 days, 2 hrs after final dose, group mean, read-out: Compound, ng/ml, Mean (SEM)): 5370 ng/mL | Compound, ng/ml (plasma) ([7]; 10 mg/kg p.o. bid 4 days): 2080 ng/mL and 2800 ng/mL | Compound, ng/ml (plasma) ([7]; 40 mg/kg p.o. bid 4 days): 5060 ng/mL and 5730 ng/mL | concentration at 2 h ([7]; 10 mg/kg, 10 mg/kg p.o. bid 4 days): 2730 ng/mL | concentration at 2 h ([7]; 40 mg/kg, 40 mg/kg p.o. bid 4 days): 5320 ng/mL
Compound: CONC(=O)c1cn(-c2ccc3c(c2)CCC3)c2nc(Nc3ccc(C4CCN(C)CC4)cc3)ncc2c1=O [COMPOUND 3]
CSF-1 levels elevated ([4]; 10 mg/kg p.o. bid 4 days): 4.5 fold | CSF-1, pg/ml, Mean (SEM) ([4]; 10 mg/kg p.o. bid 4 days): 570 pg/mL | CSF-1, pg/ml (plasma) ([4]; 10 mg/kg p.o. bid 4 days): 651 pg/mL and 482 pg/mL and 577 pg/mL | CSF-1 levels elevated ([4]; 40 mg/kg p.o. bid 4 days): 5.5 fold | CSF-1, pg/ml, Mean (SEM) ([4]; 40 mg/kg p.o. bid 4 days): 698 pg/mL | CSF-1, pg/ml (plasma) ([4]; 40 mg/kg p.o. bid 4 days): 548 pg/mL and 746 pg/mL and 801 pg/mL | Uterine macrophages depleted ([5]; 10 mg/kg p.o. bid 4 days): 51% | Uterine ED1 area/HPF, Mean (SEM) [5, 8]: 4855 arbitrary units | Uterine ED1 area/HPF [5, 8]: 4919 arbitrary units and 7609 arbitrary units and 2037 arbitrary units | Morphology of uterine macrophages (ED-1 staining) ([5]; 40 mg/kg p.o. bid 4 days): did not have the normal reticulated morphology | Uterine macrophages depleted ([5]; 40 mg/kg p.o. bid 4 days): 81% | Uterine ED1 area/HPF, Mean (SEM) [5, 9]: 1836 arbitrary units | Uterine ED1 area/HPF [5, 9]: 929 arbitrary units and 1721 arbitrary units and 2858 arbitrary units

Plasma compound, ng/ml, Mean ([6]; 10 mpk, dosed 4 days, 2 hours after last dose, group mean): 1414 (186) ng/ml | Plasma compound, ng/ml, Mean ([6]; 20 mpk, dosed 4 days, 2 hours after last dose, group mean): 2636 (172) ng/ml | Plasma compound, ng/ml, Mean ([6]; 50 mpk, dosed 4 days, 2 hours after last dose, group mean): 6612 (881) ng/ml | concentration at 2 h ([6]; 10 mpk, dosed 4 days, 2 hours after last dose, group mean, read-out: Plasma compound, ng/ml, Mean): 1410 ng/mL | concentration at 2 h ([6]; 10 mpk, dosed 4 days, 2 hours after last dose, individual animals, read-out: Plasma compound): 1070 ng/mL | concentration at 2 h ([6]; 20 mpk, dosed 4 days, 2 hours after last dose, individual animals, read-out: Plasma compound): 2510 ng/mL | concentration at 2 h ([6]; 50 mpk, dosed 4 days, 2 hours after last dose, group mean, read-out: Plasma compound, ng/ml, Mean): 6610 ng/mL | concentration at 2 h ([6]; 50 mpk, dosed 4 days, 2 hours after last dose, individual animals, read-out: Plasma compound): 5670 ng/mL | concentration at 2 h ([6]; dosed 4 days, 2 hours after last dose, group mean, read-out: Plasma compound, ng/ml, Mean): 2640 ng/mL
Compound: CC1(C)CC=C(c2nc(C3CC(C)(C)OC(C)(C)C3)ccc2NC(=O)c2ncc(C#N)[nH]2)CC1 [COMPOUND 4]
CSF-1 levels elevated ([4]; 10 mpk, dosed 4 days): 28% | Plasma CSF-1, pg/ml, Mean ([4]; 10 mpk, dosed 4 days, p < 0.05 vs. Vehicle): 159* pg/ml | Plasma CSF-1, pg/ml ([4]; 10 mpk, dosed 4 days): 152 pg/mL and 165 pg/mL and 139 pg/mL and 157 pg/mL and 184 pg/mL | CSF-1 levels elevated ([4]; 20 mpk, dosed 4 days): 79% | Plasma CSF-1, pg/ml, Mean ([4]; 20 mpk, dosed 4 days, p < 0.005 vs. Vehicle): 211** pg/ml | Plasma CSF-1, pg/ml ([4]; 20 mpk, dosed 4 days): 211 pg/mL and 163 pg/mL and 196 pg/mL and 238 pg/mL and 249 pg/mL | CSF-1 levels elevated ([4]; 50 mpk, dosed 4 days): 363% | Plasma CSF-1, pg/ml, Mean ([4]; 50 mpk, dosed 4 days, p < 0.005 vs. Vehicle): 574** pg/ml | Plasma CSF-1, pg/ml ([4]; 50 mpk, dosed 4 days): 540 pg/mL and 696 pg/mL and 506 pg/mL and 585 pg/mL and 541 pg/mL | Dose with a threshold level of activity for CSF-1 elevation and uterine macrophage depletion ([4]; rats dosed 4 days): 10 mg/kg | Uterine macrophages depleted ([5]; 10 mpk, dosed 4 days): 27% | Uterine ED1 area/HPF, Mean [5, 10]: 1501 arbitrary units | Uterine ED1 area/HPF [5, 10]: 1003 arbitrary units and 1233 arbitrary units and 1174 arbitrary units and 1021 arbitrary units and 3075 arbitrary units | Uterine macrophages depleted ([5]; 20 mpk, dosed 4 days): 28% | Uterine ED1 area/HPF, Mean [5, 11]: 1476 arbitrary units | Uterine ED1 area/HPF [5, 11]: 1419 arbitrary units and 1995 arbitrary units and 1164 arbitrary units and 1560 arbitrary units and 1244 arbitrary units | Uterine macrophages depleted ([5]; 50 mpk, dosed 4 days): 44% | Uterine ED1 area/HPF, Mean [5, 12]: 1149 arbitrary units | Uterine ED1 area/HPF [5, 12]: 681 arbitrary units and 1431 arbitrary units and 2955 arbitrary units and 585 arbitrary units and 94 arbitrary units | Plasma compound ([6]; 10 mpk, dosed 4 days, 2 hours after last dose, individual animals): 968 ng/mL and 1560 ng/mL and 1790 ng/mL and 1680 ng/mL | Plasma compound ([6]; 20 mpk, dosed 4 days, 2 hours after last dose, individual animals): 2670 ng/mL and 2320 ng/mL and 2470 ng/mL and 3210 ng/mL | Plasma compound ([6]; 50 mpk, dosed 4 days, 2 hours after last dose, individual animals): 6090 ng/mL and 4800 ng/mL and 9390 ng/mL and 7110 ng/mL
